Read-outs that look alike come from different tables or passages of the source.
Legend:
S. aureus = test: In vitro antibacterial assay (zone of inhibition, MIC); type: cell-based, Staphylococcus aureus; details: for Minimum inhibitory concentration (MIC); head: IC50 VALUES / Zone of inhibition: S. aureus
Method: (§1) The free ligands and their cyclometallated ruthenium(II) carbonyl complexes were screened for their in vitro antimicrobial activity against certain pathogenic bacterial and fungal species at three different concentrations using disc diffusion method.
(§2) Antimicrobial activities of [RuHClCO(PPh3)3], ligands H2L^1–4 and new organometallic Ru(II) complexes (1–4) were evaluated by agar well diffusion method[76] as reported, by taking Staphylococcus aureus, Streptococcus pneumonie, Pseudomonas aeruginosa, Salmonella paratyphi and fungus such as Candida albicans, Trichophyton rubrum, Aspergillus niger, Aspergillus fumigatus and Candida tropicalis. The above said all test organisms were obtained from the MTCC, Chandigarh, India and Microbiological laboratory, Coimbatore, Tamil Nadu, India. The antimicrobial activity of the test compounds was checked with various concentrations (25 μg ml^−1, 50 μg ml^−1 and 100 μg ml^−1) against all the test pathogens. Gentamicin and ketoconazole were used as positive controls to study the antibacterial and antifungal activities respectively. Each experiment was performed in triplicate and the results are represented as average zone of inhibition and minimum inhibitory concentration of all the test pathogens.

S. pneumonie = test: as above; type: cell-based, Streptococcus pneumonie; details: for Minimum inhibitory concentration (MIC); head: IC50 VALUES / Zone of inhibition: S. pneumonie
Method: as §1, §2

P. aeruginosa = test: as above; type: cell-based, Pseudomonas aeruginosa; details: for Minimum inhibitory concentration (MIC); head: IC50 VALUES / Zone of inhibition: P. aeruginosa
Method: as §1, §2

S. paratyphi = test: as above; type: cell-based, Salmonella paratyphi
Excerpt: The free ligands and their cyclometallated ruthenium(II) carbonyl complexes were screened for their in vitro antimicrobial activity against certain pathogenic bacterial and fungal species at three different concentrations using disc diffusion method. […] Tested complexes had better antimicrobial activity than the ligands against all pathogens. This may be explained by Tweedy's chelation theory.[61] Coordination of ligands reduce the polarity of the metal ion essentially by partial sharing of its positive charge with the donor groups within the chelate ring system formed during the coordination and leading to the increase in lipophilic nature of the central metal atom, which favours the effective permeation through the lipid layer of microorganism.[61,62] […] When tested against T. rubrum, the activity of the complexes in the order of 3 > 2 > 1 > 4. In antibacterial studies, the complex 3 was effective against S. aureus followed by complex 2, 1 and 4 and in the case of S. pneumonie the activity of the complexes follows the order of 3 > 1 > 4 > 2. […] When tested against S. paratyphi complex 1 stood out as good followed by the complexes 4, 3 and 2 respectively.
as §2

Aspergillus fumigatus = test: In vitro antifungal assay (zone of inhibition, MIC); type: cell-based
Method: as §1, §2

Aspergillus niger = test: as above; type: cell-based
Method: as §1, §2

Candida tropicalis = test: as above; type: cell-based
Method: as §1, §2

Trichophyton rubrum = test: as above; type: cell-based
Method: as §1, §2

C. albicans = test: as above; type: cell-based, Candida albicans; details: for Minimum inhibitory concentration (MIC); head: IC50 VALUES / Zone of inhibition: C. albicans
Method: as §1, §2

[1] = tested on: human breast cancer cell line MCF-7; test: MTT cytotoxicity assay; type: cell-based; details: read-out: IC50 values MCF-7
Excerpt: (§3) The DNA/protein binding studies, antioxidant and antimicrobial studies had shown that the ligands and ruthenium(II) complexes studied here have therapeutic potentials and were subjected to study their anticancer activity. A number of coumarin derivatives have shown considerable anticancer activity against a number of cell lines. All the 3-acetyl-7-methoxy-coumarin-4(N)-substituted thiosemicarbazone ligands, metal precursor [RuHClCO(PPh3)3] and their new cyclometallated Ru(II) complexes were assessed for their cytotoxicity with two human derived cell lines namely human lung carcinoma (A549) and human breast cancer cells (MCF-7) by using MTT assay. For comparison purpose, cisplatin was used as a positive control under identical conditions.
(§4) Cytotoxic activity of the compounds was tested with human lung cancer cell lines A549, human breast cancer cell lines MCF-7 and human normal keratinocyte cells (HaCaT) by using MTT assay, which was done according to the earlier literature methods[77] and IC50 values obtained from nonlinear regression using GraphPad Prism 5.[78] The LDH release[79] and NO release[80] assays of the compounds was evaluated by the earlier reported methods.

[2] = tested on: human lung carcinoma cancer cell line A549; test: MTT cytotoxicity assay; type: cell-based; details: read-out: IC50 values A549
Excerpt: as §3, §4

[3] = tested on: human normal keratinocyte cells (HaCaT); test: MTT cytotoxicity assay; type: cell-based; details: 48 h, read-out: IC50 values HaCaT
Method: In order to investigate the selectivity of the compounds for cancer cells rather than normal cell lines, the compounds were also screened for their anticancer activity on the human normal keratinocyte cells (HaCaT).
as §4

In the case of `CNC1=N[N+]2=C(C)c3[c](c4ccc(OC)cc4oc3=O)[Ru-4]2([C]#[O+])([P+](c2ccccc2)(c2ccccc2)c2ccccc2)([P+](c2ccccc2)(c2ccccc2)c2ccccc2)[S]1` [Complex 2, [Ru(7MAC-mtsc)(CO)(PPh3)2]], the “Minimum inhibitory concentration (MIC); head: IC50 VALUES” (shortened to “Minimum inhibitory concentration (MIC)”) (S. aureus) is reported as 15.90 ± 0.16 µM, the Zone of inhibition (S. aureus; 50 µg/ml) is reported as 13.12±0.41 mm and the Zone of inhibition (S. aureus; 100 µg/ml) is reported as 18.65±0.13 mm. The “Minimum inhibitory concentration (MIC)” value (S. pneumonie) was 16.43 ± 0.09 µM, the Zone of inhibition (S. pneumonie; 50 µg/ml) was 13.21±0.13 mm and the Zone of inhibition (S. pneumonie; 100 µg/ml) was 17.14±0.12 mm. The “Minimum inhibitory concentration (MIC)” value (P. aeruginosa) was 14.81 ± 0.19 µM, the Zone of inhibition (P. aeruginosa; 50 µg/ml) was 12.12±0.13 mm and the Zone of inhibition (P. aeruginosa; 100 µg/ml) was 17.95±0.21 mm. For the same compound, the Zone of inhibition (S. paratyphi; 50 µg/ml) was 13.41±0.01 mm, the Zone of inhibition (S. paratyphi; 100 µg/ml) was 18.45±0.51 mm and the “Minimum inhibitory concentration (MIC)” value (Aspergillus fumigatus) was 14.70 ± 0.1 µM. For the same compound, the Zone of inhibition (Aspergillus fumigatus; 50 µg/ml) was 12.61±0.71 mm, the Zone of inhibition (Aspergillus fumigatus; 100 µg/ml) was 17.36±0.45 mm and the “Minimum inhibitory concentration (MIC)” value (Aspergillus niger) was 14.67 ± 0.31 µM. The Zone of inhibition (Aspergillus niger; 50 µg/ml) was 11.56±0.24 mm, the Zone of inhibition (Aspergillus niger; 100 µg/ml) was 19.63±0.12 mm and the “Minimum inhibitory concentration (MIC)” value (Candida tropicalis) was 13.46 ± 0.15 µM. For the same compound, the Zone of inhibition (Candida tropicalis; 50 µg/ml) was 12.64±0.15 mm, the Zone of inhibition (Candida tropicalis; 100 µg/ml) was 19.52±0.27 mm and the “Minimum inhibitory concentration (MIC)” value (Trichophyton rubrum) was 15.14 ± 0.24 µM. The Zone of inhibition (Trichophyton rubrum; 50 µg/ml) was 12.16±0.15 mm, the Zone of inhibition (Trichophyton rubrum; 100 µg/ml) was 17.45±0.35 mm and the “Minimum inhibitory concentration (MIC)” value (C. albicans) was 13.59 ± 0.15 µM. It also gave a Zone of inhibition (C. albicans; 50 µg/ml) of 12.45±0.31 mm, a Zone of inhibition (C. albicans; 100 µg/ml) of 16.28±0.10 mm and an IC50 ([1]; MTT, 48 h) of 2620 ± 70 nM. The IC50 ([2]; MTT, 48 h) was 2930 ± 70 nM and the IC50 ([3]; MTT, normal cells) was > 40 µM.
In the case of `COc1ccc2[c]3c(c(=O)oc2c1)C(C)=[N+]1N=C(N)[S][Ru-4]31([C]#[O+])([P+](c1ccccc1)(c1ccccc1)c1ccccc1)[P+](c1ccccc1)(c1ccccc1)c1ccccc1` [Complex 1, [Ru(7MAC-tsc)(CO)(PPh3)2]], the “Minimum inhibitory concentration (MIC)” value (S. aureus) is reported as 16.35 ± 0.21 µM, the Zone of inhibition (S. aureus; 50 µg/ml) is reported as 12.16±0.11 mm and the Zone of inhibition (S. aureus; 100 µg/ml) is reported as 18.09±0.15 mm. For the same compound, the “Minimum inhibitory concentration (MIC)” value (S. pneumonie) was 15.86 ± 0.07 µM, the Zone of inhibition (S. pneumonie; 50 µg/ml) was 12.41±0.36 mm and the Zone of inhibition (S. pneumonie; 100 µg/ml) was 18.51±0.94 mm. The “Minimum inhibitory concentration (MIC)” value (P. aeruginosa) was 16.37 ± 0.19 µM, the Zone of inhibition (P. aeruginosa; 50 µg/ml) was 13.23±0.32 mm and the Zone of inhibition (P. aeruginosa; 100 µg/ml) was 16.66±0.44 mm. For the same compound, the Zone of inhibition (S. paratyphi; 50 µg/ml) was 12.55±0.04 mm, the Zone of inhibition (S. paratyphi; 100 µg/ml) was 18.95±0.31 mm and the “Minimum inhibitory concentration (MIC)” value (Aspergillus fumigatus) was 15.56 ± 0.11 µM. The Zone of inhibition (Aspergillus fumigatus; 50 µg/ml) was 12.31±0.62 mm, the Zone of inhibition (Aspergillus fumigatus; 100 µg/ml) was 19.64±0.65 mm and the “Minimum inhibitory concentration (MIC)” value (Aspergillus niger) was 15.89 ± 0.18 µM. For the same compound, the Zone of inhibition (Aspergillus niger; 50 µg/ml) was 11.74±0.26 mm, the Zone of inhibition (Aspergillus niger; 100 µg/ml) was 17.52±0.41 mm and the “Minimum inhibitory concentration (MIC)” value (Candida tropicalis) was 15.15 ± 0.11 µM. The Zone of inhibition (Candida tropicalis; 50 µg/ml) was 12.82±0.34 mm, the Zone of inhibition (Candida tropicalis; 100 µg/ml) was 18.51±0.54 mm and the “Minimum inhibitory concentration (MIC)” value (Trichophyton rubrum) was 15.29 ± 0.29 µM. The Zone of inhibition (Trichophyton rubrum; 50 µg/ml) was 11.57±0.22 mm, the Zone of inhibition (Trichophyton rubrum; 100 µg/ml) was 17.56±0.13 mm and the “Minimum inhibitory concentration (MIC)” value (C. albicans) was 15.19 ± 0.15 µM. For the same compound, the Zone of inhibition (C. albicans; 50 µg/ml) was 12.22±0.41 mm, the Zone of inhibition (C. albicans; 100 µg/ml) was 18.91±0.41 mm and the IC50 ([1]; MTT, 48 h) was 2860 ± 170 nM. For the same compound, the IC50 ([2]; MTT, 48 h) was 2960 ± 70 nM and the IC50 ([3]; MTT, normal cells) was > 40 µM.
`CNC(=S)NN=C(C)c1cc2ccc(OC)cc2oc1=O` [H2L^2, ((1E)-1-(1-(7-methoxy-2-oxo-2H-chromen-3-yl)ethylidene) 4(N)-methylthiosemicarbazone)] was tested, and the zone of inhibition at 50 µg/mL (S. aureus; Staphylococcus aureus) was 12.1 ± 0.25 mm, the zone of inhibition at 100 µg/mL (S. aureus; Staphylococcus aureus) was 17.5 ± 0.28 mm and the zone of inhibition at 50 µg/mL (S. pneumonie; Streptococcus) was 12.1 ± 0.33 mm. The zone of inhibition at 100 µg/mL (S. pneumonie; Streptococcus) was 17.3 ± 0.41 mm, the zone of inhibition at 50 µg/mL (P. aeruginosa; Pseudomonas aeruginosa) was 12.6 ± 0.37 mm and the zone of inhibition at 100 µg/mL (P. aeruginosa; Pseudomonas aeruginosa) was 17.7 ± 0.45 mm. It also gave a zone of inhibition at 50 µg/mL (S. paratyphi; Salmonella enterica, 50 µg/ml) of 13.43 ± 0.12 mm, a zone of inhibition at 100 µg/mL (S. paratyphi; Salmonella enterica, 100 µg/ml) of 16.2 ± 0.57 mm and a zone of inhibition at 50 µg/mL (Aspergillus fumigatus) of 11.8 ± 0.41 mm. It also gave a zone of inhibition at 100 µg/mL (Aspergillus fumigatus) of 18.3 ± 0.22 mm, a zone of inhibition at 50 µg/mL (Aspergillus niger) of 12.4 ± 0.33 mm and a zone of inhibition at 100 µg/mL (Aspergillus niger) of 16.6 ± 0.21 mm. For the same compound, the zone of inhibition at 50 µg/mL (Candida tropicalis) was 11.5 ± 0.75 mm, the zone of inhibition at 100 µg/mL (Candida tropicalis) was 17.1 ± 0.46 mm and the zone of inhibition at 50 µg/mL (Trichophyton rubrum) was 11.3 ± 0.17 mm. The zone of inhibition at 100 µg/mL (Trichophyton rubrum) was 17.4 ± 0.51 mm, the zone of inhibition at 50 µg/mL (C. albicans; Candida albicans) was 13.38 ± 0.12 mm and the zone of inhibition at 100 µg/mL (C. albicans; Candida albicans) was 18.17 ± 0.15 mm. For the same compound, the IC50 ([1]; Homo sapiens, MCF7, 48 h) was 12100 ± 320 nM, the IC50 ([2]; Homo sapiens, A549, 48 h) was 12100 ± 160 nM and the IC50 ([3]; Homo sapiens, HaCaT) was > 40 µM.

Reference: publication PMC9077138, “An investigation on 3-acetyl-7-methoxy-coumarin Schiff bases and their Ru(II) metallates with potent antiproliferative activity and enhanced LDH and NO release” (RSC Advances, 2018)
